Results from article PMC5218480 (PLoS ONE, 2017).

System: MV-4-11 cells
Test: Gene expression microarray analysis (Affymetrix PrimeView) and GSEA
Format: cell-based, human
Set-up: RFU PODN (11730768_x_at) / Fold change /veh PODN (11730768_x_at) / RFU LINC00158 (11744669_a_at) / Fold change /veh LINC00158 (11744669_a_at) / RFU DUSP10 (11751237_a_at) / Fold change /veh DUSP10 (11751237_a_at) / RFU ID3 (11757404_x_at) / Fold change /veh ID3 (11757404_x_at) / RFU PLEKHG5 (11737974_s_at) / Fold change /veh PLEKHG5 (11737974_s_at) / RFU LRRC4B (11730491_at) / Fold change /veh LRRC4B (11730491_at) / RFU GIMAP4 (11747438_a_at) / Fold change /veh GIMAP4 (11747438_a_at) / RFU KRT8 (11758183_x_at) / Fold change /veh KRT8 (11758183_x_at) / RFU CNN1 (11734310_a_at) / Fold change /veh CNN1 (11734310_a_at) / RFU VPS37D (11726825_at) / Fold change /veh VPS37D (11726825_at) / RFU C10orf10 (11716522_x_at) / Fold change /veh C10orf10 (11716522_x_at) / RFU KIR2DL2 /// KIR2DL4 /// KIR2DL5A /// KIR2DL5B /// KIR2DS1 /// KIR2DS2 /// KIR2DS3 /// KIR2DS4 /// KIR3DL3 /// KIR3DL3 /// KIR3DS1 (11738374_at) / Fold change /veh KIR2DL2 /// KIR2DL4 /// KIR2DL5A /// KIR2DL5B /// KIR2DS1 /// KIR2DS2 /// KIR2DS3 /// KIR2DS4 /// KIR3DL3 /// KIR3DL3 /// KIR3DS1 (11738374_at) / RFU C1QL1 (11718748_at) / Fold change /veh C1QL1 (11718748_at) / RFU TMPRSS4 (11747572_a_at) / Fold change /veh TMPRSS4 (11747572_a_at) / RFU HAMP (11756126_x_at) / Fold change /veh HAMP (11756126_x_at) / RFU RNFT2 (11725882_a_at) / Fold change /veh RNFT2 (11725882_a_at) / RFU NR4A2 (11747474_a_at) / Fold change /veh NR4A2 (11747474_a_at) / RFU ABCC12 (11746883_a_at) / Fold change /veh ABCC12 (11746883_a_at) / RFU TMEM136 (11760407_x_at) / Fold change /veh TMEM136 (11760407_x_at) / RFU CLDN22 /// WWC2 (11732394_at) / Fold change /veh CLDN22 /// WWC2 (11732394_at) / RFU HLA-DPB1 (11760878_x_at) / Fold change /veh HLA-DPB1 (11760878_x_at) / RFU SPINT1 (11716480_a_at) / Fold change /veh SPINT1 (11716480_a_at) / RFU GAP43 (11754022_s_at) / Fold change /veh GAP43 (11754022_s_at) / RFU A4GNT (11735810_at) / Fold change /veh A4GNT (11735810_at) / RFU PRB3 (11715151_x_at) / Fold change /veh PRB3 (11715151_x_at) / RFU TUBB4B (11761932_at) / Fold change /veh TUBB4B (11761932_at) / RFU CAPN14 (11732068_a_at) / Fold change /veh CAPN14 (11732068_a_at) / RFU TMCC2 (11721928_a_at) / Fold change /veh TMCC2 (11721928_a_at) / RFU IRGQ (11745062_a_at) / Fold change /veh IRGQ (11745062_a_at) / RFU FAM174B (11720279_a_at) / Fold change /veh FAM174B (11720279_a_at) / RFU TMPRSS4 (11748680_a_at) / Fold change /veh TMPRSS4 (11748680_a_at) / RFU FAM212B (11763350_a_at) / Fold change /veh FAM212B (11763350_a_at) / RFU PLEKHG5 (11743358_a_at) / Fold change /veh PLEKHG5 (11743358_a_at) / RFU ZSCAN30 (11745921_a_at) / Fold change /veh ZSCAN30 (11745921_a_at) / RFU CMKLR1 (11741424_a_at) / Fold change /veh CMKLR1 (11741424_a_at) / RFU LOC101060620 /// MAPK8IP1 (11723275_at) / Fold change /veh LOC101060620 /// MAPK8IP1 (11723275_at) / RFU SPTSSB (11747773_x_at) / Fold change /veh SPTSSB (11747773_x_at) / RFU PRSS12 (11739890_at) / Fold change /veh PRSS12 (11739890_at) / RFU BIN1 (11741810_x_at) / Fold change /veh BIN1 (11741810_x_at) / RFU WNT11 (11732464_a_at) / Fold change /veh WNT11 (11732464_a_at) / RFU C10orf10 (11716521_a_at) / Fold change /veh C10orf10 (11716521_a_at) / RFU C5orf56 (11738089_at) / Fold change /veh C5orf56 (11738089_at) / RFU CYB561 (11721691_x_at) / Fold change /veh CYB561 (11721691_x_at) / RFU ANKRD19P (11752326_a_at) / Fold change /veh ANKRD19P (11752326_a_at) / RFU OR2T12 /// OR2T33 /// OR2T8 (11738714_s_at) / Fold change /veh OR2T12 /// OR2T33 /// OR2T8 (11738714_s_at) / RFU VCAN (11748164_a_at) / Fold change /veh VCAN (11748164_a_at) / RFU JSRP1 (11732532_at) / Fold change /veh JSRP1 (11732532_at) / RFU KRTAP10-11 (11738290_x_at) / Fold change /veh KRTAP10-11 (11738290_x_at) / RFU MYO3A (11730013_a_at) / Fold change /veh MYO3A (11730013_a_at) / RFU EBF3 (11725865_a_at) / Fold change /veh EBF3 (11725865_a_at) / RFU CAMK2N1 (11719241_x_at) / Fold change /veh CAMK2N1 (11719241_x_at) / RFU C5orf56 (11738088_a_at) / Fold change /veh C5orf56 (11738088_a_at) / RFU OLFML3 (11715873_a_at) / Fold change /veh OLFML3 (11715873_a_at) / RFU LOC100653217 /// NTM (11731650_a_at) / Fold change /veh LOC100653217 /// NTM (11731650_a_at) / RFU MAPK11 (11762145_a_at) / Fold change /veh MAPK11 (11762145_a_at) / RFU FIZ1 (11724087_x_at) / Fold change /veh FIZ1 (11724087_x_at) / RFU OASL (11726364_x_at) / Fold change /veh OASL (11726364_x_at) / RFU SOX15 (11748057_x_at) / Fold change /veh SOX15 (11748057_x_at) / RFU CD79A (11719716_a_at) / Fold change /veh CD79A (11719716_a_at) / RFU HIST1H1D (11736915_at) / Fold change /veh HIST1H1D (11736915_at) / RFU CASKIN2 (11723855_a_at) / Fold change /veh CASKIN2 (11723855_a_at) / RFU LOC730098 (11760151_x_at) / Fold change /veh LOC730098 (11760151_x_at) / RFU OR4N2 (11742367_at) / Fold change /veh OR4N2 (11742367_at) / RFU PRRT2 (11749266_a_at) / Fold change /veh PRRT2 (11749266_a_at) / RFU SNX32 (11753110_a_at) / Fold change /veh SNX32 (11753110_a_at) / RFU CDHR5 (11726645_a_at) / Fold change /veh CDHR5 (11726645_a_at) / RFU RCAN1 (11760418_a_at) / Fold change /veh RCAN1 (11760418_a_at) / RFU FAM167A (11723789_a_at) / Fold change /veh FAM167A (11723789_a_at) / RFU FAM26E (11764081_at) / Fold change /veh FAM26E (11764081_at) / RFU ISYNA1 (11749810_s_at) / Fold change /veh ISYNA1 (11749810_s_at) / RFU ACY1 (11761880_at) / Fold change /veh ACY1 (11761880_at) / RFU 11764098_at / Fold change /veh 11764098_at / RFU SAMD14 (11745864_x_at) / Fold change /veh SAMD14 (11745864_x_at) / RFU NPB (11741838_a_at) / Fold change /veh NPB (11741838_a_at) / RFU TMPRSS6 (11731388_a_at) / Fold change /veh TMPRSS6 (11731388_a_at) / RFU KRTAP10-2 (11738614_at) / Fold change /veh KRTAP10-2 (11738614_at) / RFU ARHGAP8 /// PRR5-ARHGAP8 (11727945_x_at) / Fold change /veh ARHGAP8 /// PRR5-ARHGAP8 (11727945_x_at) / RFU KRTAP5-7 /// NADSYN1 (11734609_at) / Fold change /veh KRTAP5-7 /// NADSYN1 (11734609_at) / RFU RASL12 (11751679_a_at) / Fold change /veh RASL12 (11751679_a_at) / RFU CDKN2B (11736163_a_at) / Fold change /veh CDKN2B (11736163_a_at) / RFU PRF1 (11729649_at) / Fold change /veh PRF1 (11729649_at) / RFU, ZNF638 /// ZNF638-IT1 / Fold change vs veh, ZNF638 /// ZNF638-IT1 / RFU, PANK3 / Fold change vs veh, PANK3 / RFU, SH3YL1 / Fold change vs veh, SH3YL1 / RFU, ZEB2 / Fold change vs veh, ZEB2 / RFU, NRIP1 / Fold change vs veh, NRIP1 / RFU, PTTG1IP / Fold change vs veh, PTTG1IP / RFU, CAPN2 / Fold change vs veh, CAPN2 / RFU, MED14 / Fold change vs veh, MED14 / RFU, SNORA58 / Fold change vs veh, SNORA58 / RFU, C1orf63 / Fold change vs veh, C1orf63 / RFU, LRRFIP1 / Fold change vs veh, LRRFIP1 / RFU, NDUFAF7 / Fold change vs veh, NDUFAF7 / RFU, SLC12A2 / Fold change vs veh, SLC12A2 / RFU, IBTK / Fold change vs veh, IBTK / RFU, ESF1 / Fold change vs veh, ESF1 / Fold change vs veh, TMEM50B / RFU, TAOK1 / Fold change vs veh, TAOK1 / RFU, ACBD3 / Fold change vs veh, ACBD3 / RFU, TMA16 / Fold change vs veh, TMA16 / RFU, RWDD3 / Fold change vs veh, RWDD3 / RFU, BCAT1 / Fold change vs veh, BCAT1 / RFU, EDEM3 / Fold change vs veh, EDEM3 / RFU, TMEM33 / Fold change vs veh, TMEM33 / RFU, WDR75 / Fold change vs veh, WDR75 / RFU, AHCTF1 / Fold change vs veh, AHCTF1 / RFU, TFRC / Fold change vs veh, TFRC / RFU, ZDHHC17 / Fold change vs veh, ZDHHC17 / RFU, NOM1 / Fold change vs veh, NOM1 / RFU, ARL8B / Fold change vs veh, ARL8B / RFU, ZBTB11 / Fold change vs veh, ZBTB11 / RFU, TAMM41 / Fold change vs veh, TAMM41 / RFU, KIAA1704 /// LOC100996395 / Fold change vs veh, KIAA1704 /// LOC100996395 / RFU, ING1 / Fold change vs veh, ING1 / RFU, TRMT61B / Fold change vs veh, TRMT61B / RFU, FUBP3 / Fold change vs veh, FUBP3 / RFU, TP53 / Fold change vs veh, TP53 / RFU, TNKS2 / Fold change vs veh, TNKS2 / RFU, ZFP14 / Fold change vs veh, ZFP14 / RFU, ACTR2 / Fold change vs veh, ACTR2 / RFU, PPP3R1 / Fold change vs veh, PPP3R1 / RFU, PIK3R1 / Fold change vs veh, PIK3R1 / RFU, HNRNPA1 / Fold change vs veh, HNRNPA1 / RFU, RNF170 / Fold change vs veh, RNF170 / RFU, ZNF28 / Fold change vs veh, ZNF28 / RFU, RNGTT / Fold change vs veh, RNGTT / RFU, OGT / Fold change vs veh, OGT / RFU, BRD1 / Fold change vs veh, BRD1 / RFU, MARS / Fold change vs veh, MARS / RFU, ZNF655 / Fold change vs veh, ZNF655 / RFU, FAHD1 / Fold change vs veh, FAHD1 / RFU, BDP1 / Fold change vs veh, BDP1 / RFU, LRRCC1 / Fold change vs veh, LRRCC1 / RFU, ARID1A / Fold change vs veh, ARID1A / RFU, ZNF146 / Fold change vs veh, ZNF146 / RFU, ZNF330 / Fold change vs veh, ZNF330 / RFU, GPN3 / Fold change vs veh, GPN3 / RFU, C9orf123 / Fold change vs veh, C9orf123 / RFU, N4BP2L2 / Fold change vs veh, N4BP2L2 / RFU, ARFIP1 / Fold change vs veh, ARFIP1 / RFU, FAM179B / Fold change vs veh, FAM179B / RFU, BCL10 / Fold change vs veh, BCL10 / RFU, UHRF1BP1L / Fold change vs veh, UHRF1BP1L / RFU, BET1 / Fold change vs veh, BET1 / RFU, CNOT2 / Fold change vs veh, CNOT2 / RFU, ZNF268 / Fold change vs veh, ZNF268 / Fold change vs veh, ZNF507 / RFU, DGCR2 / Fold change vs veh, DGCR2 / RFU, WDSUB1 / Fold change vs veh, WDSUB1 / Fold change vs veh, HSP90B1 /// MIR3652 / RFU, ADSS / Fold change vs veh, ADSS / RFU, GK / Fold change vs veh, GK / RFU, ZNF148 / Fold change vs veh, ZNF148 / RFU, TAF9 / Fold change vs veh, TAF9 / RFU, SLC1A5 / Fold change vs veh, SLC1A5 / RFU, SLMO2 / Fold change vs veh, SLMO2 / RFU, ABCC4 / Fold change vs veh, ABCC4 / RFU, LOC101060439 /// RAP1B / Fold change vs veh, LOC101060439 /// RAP1B / RFU, RFX7 / Fold change vs veh, RFX7 / RFU, GTPBP10 / Fold change vs veh, GTPBP10 / RFU, CNEP1R1 / Fold change vs veh, CNEP1R1 / RFU, BIVM-ERCC5 /// ERCC5 / Fold change vs veh, BIVM-ERCC5 /// ERCC5 / RFU, ILF3 / Fold change vs veh, ILF3 / RFU 11762660_at / Fold change /veh 11762660_at / RFU VCAN (11757783_s_at) / Fold change /veh VCAN (11757783_s_at) / RFU DDX43 (11728927_at) / Fold change /veh DDX43 (11728927_at) / RFU KRT8 (11758188_x_at) / Fold change /veh KRT8 (11758188_x_at) / RFU NKD1 (11759106_at) / Fold change /veh NKD1 (11759106_at) / RFU SRD5A1 (11742802_a_at) / Fold change /veh SRD5A1 (11742802_a_at) / RFU TPSAB1 /// TPSB2 (11721975_s_at) / Fold change /veh TPSAB1 /// TPSB2 (11721975_s_at) / RFU GSTM3 (11746129_a_at) / Fold change /veh GSTM3 (11746129_a_at) / RFU IL23R (11737362_x_at) / Fold change /veh IL23R (11737362_x_at) / RFU TMEM51 (11727254_a_at) / Fold change /veh TMEM51 (11727254_a_at) / RFU PIWIL2 (11732686_x_at) / Fold change /veh PIWIL2 (11732686_x_at) / RFU ORM1 (11744905_x_at) / Fold change /veh ORM1 (11744905_x_at) / RFU CCDC152 (11743942_at) / Fold change /veh CCDC152 (11743942_at) / RFU ECM1 (11717891_a_at) / Fold change /veh ECM1 (11717891_a_at) / RFU IL23R (11748794_a_at) / Fold change /veh IL23R (11748794_a_at) / RFU TNFAIP8L3 (11732012_x_at) / Fold change /veh TNFAIP8L3 (11732012_x_at) / RFU MBOAT4 (11741988_at) / Fold change /veh MBOAT4 (11741988_at) / RFU 11764193_at / Fold change /veh 11764193_at / RFU TMEM53 (11763286_at) / Fold change /veh TMEM53 (11763286_at) / RFU MAGEB2 (11727129_at) / Fold change /veh MAGEB2 (11727129_at) / RFU TMEM200A (11744735_a_at) / Fold change /veh TMEM200A (11744735_a_at) / RFU CCDC152 (11751479_a_at) / Fold change /veh CCDC152 (11751479_a_at) / RFU FAM211A (11726209_a_at) / Fold change /veh FAM211A (11726209_a_at) / RFU RGS16 (11746705_a_at) / Fold change /veh RGS16 (11746705_a_at) / RFU VCAN (11755009_s_at) / Fold change /veh VCAN (11755009_s_at) / RFU RHOB (11743442_s_at) / Fold change /veh RHOB (11743442_s_at) / RFU RGS16 (11720943_a_at) / Fold change /veh RGS16 (11720943_a_at) / RFU RGS16 (11720944_at) / Fold change /veh RGS16 (11720944_at) / RFU, VPS4B / Fold change vs veh, VPS4B / RFU, CREB1 / Fold change vs veh, CREB1 / RFU, DNAJC13 / Fold change vs veh, DNAJC13 / RFU, GNAQ / Fold change vs veh, GNAQ / RFU, CDK5R1 / Fold change vs veh, CDK5R1 / RFU, ZRANB3 / Fold change vs veh, ZRANB3 / RFU, CUL4A / Fold change vs veh, CUL4A / RFU, CCNY / Fold change vs veh, CCNY / RFU, UFL1 / Fold change vs veh, UFL1 / RFU, COG3 / Fold change vs veh, COG3 / RFU, DIAPH2 / Fold change vs veh, DIAPH2 / RFU, SKA2 / Fold change vs veh, SKA2 / RFU, AFF3 / Fold change vs veh, AFF3 / RFU, LMF1 / Fold change vs veh, LMF1 / RFU, IPO11 / Fold change vs veh, IPO11 / RFU, DFFB / Fold change vs veh, DFFB / RFU, FOXP1 / Fold change vs veh, FOXP1 / RFU, CARD8 / Fold change vs veh, CARD8 / RFU, STRN3 / Fold change vs veh, STRN3 / RFU, ADK / Fold change vs veh, ADK / RFU, RASSF2 / Fold change vs veh, RASSF2 / RFU, WIPF1 / Fold change vs veh, WIPF1 / RFU, LARP1B / Fold change vs veh, LARP1B / RFU, RASA1 / Fold change vs veh, RASA1 / RFU, RB1 / Fold change vs veh, RB1 / RFU, PPFIA1 / Fold change vs veh, PPFIA1 / RFU, MAT2A / Fold change vs veh, MAT2A / RFU, CCT5 / Fold change vs veh, CCT5 / RFU, WDR92 / Fold change vs veh, WDR92 / RFU, CUX1 / Fold change vs veh, CUX1 / RFU, TTC7A / Fold change vs veh, TTC7A / RFU, TMEM135 / Fold change vs veh, TMEM135 / RFU, DEPTOR / Fold change vs veh, DEPTOR / RFU, CPM / Fold change vs veh, CPM / RFU, DNAJB6 / Fold change vs veh, DNAJB6 / RFU, CACNA2D3 / Fold change vs veh, CACNA2D3 / RFU, DTX4 / Fold change vs veh, DTX4 / RFU, TFCP2 / Fold change vs veh, TFCP2 / RFU, GMCL1 /// GMCL1P1 / Fold change vs veh, GMCL1 /// GMCL1P1 / RFU, AEBP2 / Fold change vs veh, AEBP2 / RFU, SNHG1 /// SNORD22 /// SNORD25 /// SNORD26 /// SNORD27 /// SNORD28 /// SNORD29 /// SNORD31 / Fold change vs veh, SNHG1 /// SNORD22 /// SNORD25 /// SNORD26 /// SNORD27 /// SNORD28 /// SNORD29 /// SNORD31 / Fold change (Aza/veh), C12orf56 (ProbeSet 11735607_a_at) / Fold change (ACY-1035/veh), C12orf56 (ProbeSet 11735607_a_at) / Fold change (Aza/veh), FGFR1OP (ProbeSet 11751329_s_at) / Fold change (ACY-1035/veh), FGFR1OP (ProbeSet 11751329_s_at) / Fold change (Aza/veh), VPS36 (ProbeSet 11739960_a_at) / Fold change (ACY-1035/veh), VPS36 (ProbeSet 11739960_a_at) / RFU SYPL1 (11715823_x_at) / Fold change /veh SYPL1 (11715823_x_at) / RFU IGFBP7 (11715501_s_at) / Fold change /veh IGFBP7 (11715501_s_at) / RFU REEP3 (11722064_at) / Fold change /veh REEP3 (11722064_at) / RFU IGLL1 (11728026_x_at) / Fold change /veh IGLL1 (11728026_x_at): dose or concentration left out as unconfirmed
Settings: MV-4-11 cells, 48 hours

With `Nc1ncn([C@@H]2O[C@H](CO)[C@@H](O)[C@H]2O)c(=O)n1` [azacitidine] the “Fold change /veh DUSP10 (11751237_a_at)” value was 1.16.
